23 compounds from US9464069B2, “1,2-disubstituted cyclobutyl compounds” (LABORATORIOS DEL DR. ESTEVE S.A., priority 2013, dated 2016) can be followed below.

SMILES strings stand for the structures. Structures can show the parent of a compound that is named as a salt.

The target in the assay is T1, human sigma 1 receptor (Homo sapiens, UniProt Q99720).
T1 construct: expressed in transfected cells; host or cells: HEK-293
The assay can be described thus: Human Sigma 1 Receptor Radioligand Assay. The conditions noted are these: [3H](+)-pentazocine radioligand 5 nM; transfected HEK-293 membranes; 37° C., 120 minutes. Type of assay: binding. On the procedure: Human Sigma 1 Receptor Radioligand Assay
To investigate binding properties of sigma 1 receptor ligands to human sigma 1 receptor, transfected HEK-293 membranes and [^3H](+)-pentazocine (Perkin Elmer, NET-1056), as the radioligand, were used. The assay was carried out with 7 μg of membrane suspension, 5 nM of [^3H](+)-pentazocine in either absence or presence of either buffer or 10 μM Haloperidol for total and non-specific binding, respectively. Binding buffer contained Tris-HCl 50 mM at pH 8. Plates were incubated at 37° C. for 120 minutes. After the incubation period, the reaction mix was then transferred to MultiScreen HTS, FC plates (Millipore), filtered and plates were washed 3 times with ice-cold 10 mM Tris-HCL (pH 7.4). Filters were dried and counted at approximately 40% efficiency in a MicroBeta scintillation counter (Perkin-Elmer) using EcoScint liquid scintillation cocktail.

T1 sequence (Q99720 whole entry): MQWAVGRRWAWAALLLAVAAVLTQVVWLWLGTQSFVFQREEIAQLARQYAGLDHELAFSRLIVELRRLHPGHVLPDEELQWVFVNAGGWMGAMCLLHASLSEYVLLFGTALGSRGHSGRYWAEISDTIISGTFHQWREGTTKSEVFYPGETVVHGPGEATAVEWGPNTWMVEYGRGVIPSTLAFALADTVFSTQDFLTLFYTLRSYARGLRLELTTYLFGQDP

With `Cn1nc(OC[C@@H]2CC[C@H]2CN2CCCC2)cc1C(F)(F)F` [Example 32, 1-Methyl-3-(((1R,2R)-2-(pyrrolidin-1-ylmethyl)cyclobutyl)methoxy)-5-(trifluoromethyl)-1H-pyrazole hydrochloride], the inhibitory constant (Ki) (commonly a dissociation constant, usually derived from enzyme kinetics or from competition with a known ligand) stood at 17.2 nM. In the case of `CC1CCN(C[C@H]2CC[C@H]2COc2ccccc2)CC1` [Example 3, 4-Methyl-1-(((1S,2R)-2-(phenoxymethyl)cyclobutyl)methyl)piperidine] it was 2.8 nM; in that of `Cn1nc(OC[C@H]2CC[C@H]2CN2CCCC2)cc1C(F)(F)F` [Example 34, 1-Methyl-3-(((1S,2R)-2-(pyrrolidin-1-ylmethyl)cyclobutyl)methoxy)-5-(trifluoromethyl)-1H-pyrazole hydrochloride], 28.3 nM.

`Clc1ccc(-n2ccc(OC[C@@H]3CC[C@@H]3CN3CCOCC3)n2)cc1Cl` [Example 26, 4-(((1S,2R)-2-(((1-(3,4-Dichlorophenyl)-1H-pyrazol-3-yl)oxy)methyl)cyclobutyl)methyl)morpholine hydrochloride] yielded an inhibition constant Ki of 13.4 nM.

In turn, `Clc1ccc(-n2ccc(OC[C@@H]3CC[C@@H]3CN3CCCC3)n2)cc1Cl` [Example 25, 1-(3,4-Dichlorophenyl)-3-(((1R,2S)-2-(pyrrolidin-1-ylmethyl)cyclobutyl)methoxy)-1H-pyrazole hydrochloride] registered a Ki of 20.4 nM. Next, `Cc1cc(OC[C@@H]2CC[C@@H]2CN2CCCC2)nn1-c1ccc(Cl)c(Cl)c1` [Example 15, 1-(3,4-Dichlorophenyl)-5-methyl-3-(((1R,2S)-2-(pyrrolidin-1-ylmethyl)cyclobutyl)methoxy)-1H-pyrazole]: 50.3 nM; `Clc1ccc(OC[C@@H]2CC[C@@H]2CN2CCOCC2)cc1Cl` [Example 19, 4-(((1S,2R)-2-((3,4-Dichlorophenoxy)methyl)cyclobutyl)methyl)morpholine hydrochloride]: 3.7 nM.

For `Clc1ccc(-n2ccc(OC[C@@H]3CC[C@H]3CN3CCCC3)n2)cc1Cl` [Example 28], the affinity, expressed as Ki, was 104 nM.

The compound `Cc1cc(OC[C@@H]2CC[C@@H]2CN2CCOCC2)nn1-c1ccc(Cl)c(Cl)c1` [Example 16, 4-(((1S,2R)-2-(((1-(3,4-Dichlorophenyl)-5-methyl-1H-pyrazol-3-yl)oxy)methyl)cyclobutyl)methyl)morpholine] yielded a Ki of 178 nM. This Ki is about 1.7-fold higher than that of the compound before. The compound `Cc1cc(OC[C@@H]2CC[C@H]2CN2CCCC2)nn1-c1ccc(Cl)c(Cl)c1` [Example 29, 1-(3,4-Dichlorophenyl)-5-methyl-3-(((1R,2R)-2-(pyrrolidin-1-ylmethyl)cyclobutyl)methoxy)-1H-pyrazole] showed an inhibition constant (Ki) of 113 nM. Next, `Cc1cc(OC[C@@H]2CC[C@@H]2CN2CCCC2)nn1-c1ccc(Cl)c(Cl)c1` [Example 27, 1-(3,4-Dichlorophenyl)-5-methyl-3-(((1R,2S)-2-(pyrrolidin-1-ylmethyl)cyclobutyl)methoxy)-1H-pyrazole hydrochloride]: 72.5 nM. In the case of `Clc1ccc(OC[C@@H]2CC[C@@H]2CN2CCCC2)cc1Cl` [Example 18, 1-(((1S,2R)-2-((3,4-Dichlorophenoxy)methyl)cyclobutyl)methyl)pyrrolidine hydrochloride] it was 2.3 nM; in that of `c1ccc(OC[C@@H]2CC[C@@H]2CN2CCOCC2)cc1` [Example 17, 4-(((1S,2R)-2-(Phenoxymethyl)cyclobutyl)methyl)morpholine hydrochloride], 33.9 nM; in that of `CCN(CC)C[C@H]1CC[C@@H]1COc1ccccc1` [Example 39, N,N-Diethyl-N-(((1S,2S)-2-(phenoxymethyl)cyclobutyl)methyl)ethanamine hydrochloride], 39.9 nM. Next, `Cn1nc(OC[C@H]2CC[C@@H]2CN2CCCC2)cc1C(F)(F)F` [Example 38, 1-Methyl-3-(((1S,2S)-2-(pyrrolidin-1-ylmethyl)cyclobutyl)methoxy)-5-(trifluoromethyl)-1H-pyrazole hydrochloride]: 75.8 nM; `CC1CCN(C[C@H]2CC[C@H]2COc2ccc(Cl)c(Cl)c2)CC1` [Example 20, 1-(((1S,2R)-2-((3,4-Dichlorophenoxy)methyl)cyclobutyl)methyl)-4-methylpiperidine hydrochloride]: 4.8 nM.

With `Cn1nc(OC[C@@H]2CC[C@@H]2CN2CCOCC2)cc1C(F)(F)F` [Example 22, 4-(((1S,2R)-2-(((1-Methyl-5-(trifluoromethyl)-1H-pyrazol-3-yl)oxy)methyl)cyclobutyl)methyl)morpholine hydrochloride], the Ki is 5.6 nM.

With `Cc1cc(OC[C@@H]2CC[C@H]2CN2CCOCC2)nn1-c1ccc(Cl)c(Cl)c1` [Example 30, 4-(((1R,2R)-2-(((1-(3,4-Dichlorophenyl)-5-methyl-1H-pyrazol-3-yl)oxy)methyl)cyclobutyl)methyl)morpholine], the Ki worked out at 578 nM. In the case of `Clc1ccc(-n2ccc(OC[C@@H]3CC[C@@H]3CN3CCCC3)n2)cc1Cl` [Example 13, 1-(3,4-Dichlorophenyl)-3-(((1R,2S)-2-(pyrrolidin-1-ylmethyl)cyclobutyl)methoxy)-1H-pyrazole] it was 16.5 nM. Next, `Cn1nc(C(F)(F)F)cc1OC[C@@H]1CC[C@@H]1CN1CCCC1` [Example 23, 1-Methyl-5-(((1R,2S)-2-(pyrrolidin-1-ylmethyl)cyclobutyl)methoxy)-3-(trifluoromethyl)-1H-pyrazole hydrochloride]: 30.1 nM; `c1ccc(OC[C@@H]2CC[C@@H]2CN2CCCC2)cc1` [Example 1, 1-(((1S,2R)-2-(Phenoxymethyl)cyclobutyl)methyl)pyrrolidine]: 7.1 nM; `Cn1nc(OC[C@@H]2CC[C@@H]2CN2CCCC2)cc1C(F)(F)F` [Example 21, 1-Methyl-3-(((1R,2S)-2-(pyrrolidin-1-ylmethyl)cyclobutyl)methoxy)-5-(trifluoromethyl)-1H-pyrazole hydrochloride]: 19.1 nM. On to `Cc1cc(OC[C@H]2CC[C@@H]2CN2CCOCC2)nn1-c1ccc(Cl)c(Cl)c1` [Example 36, 4-(((1S,2S)-2-(((1-(3,4-Dichlorophenyl)-5-methyl-1H-pyrazol-3-yl)oxy)methyl)cyclobutyl)methyl)morpholine], for which the Ki stood at 465 nM. Compared with the last compound, the Ki is about 24-fold higher.
